Source: patent US11479536B1 (King Abdulaziz University, priority 2022, dated 2022)

Experiments:
[1] = target: T1, CYP2D6 (Homo sapiens, UniProt P10635); assay: Inhibition assay of human CYP450 enzymes, 2D6; assay type: in vitro ADME
T1 construct: purchased Fisher Scientific; host or cells: insect supersomes
Experimental: The two compounds MAK-1 and MAK-6 were assessed for its ability to inhibit the three major human CYP450 enzymes, 3A4, 2D6 and 2C9. Assays were run in triplicate. Expressed enzymes in insect supersomes (Fisher Scientific, Waltham, Mass.) were used to minimize non-specific binding and membrane partitioning issues (McMasters et al., 2007). The 3A4 assay uses testosterone as a substrate and analysis was performed by LC/MS/MS on a Waters Xevo TQ instrument as described above using positive electrospray ionization. Assay acceptance criteria was 20% for all standards and 25% for the LLOQ. The 2D6 and 2C9 assays use fluorescent substrates (3-[2-(N,N-diethylamino)ethyl]-7-methoxy-4-methylcoumarin for 2D6; 7-methoxy-4-(trifluoromethyl)coumarin for 2C9) and were analyzed on an Envision plate reader. GraphPad® Prism v 5.04 was used for nonlinear fitting of data to generate IC50 values.

[2] = target: T2, AMPK (A1/B1/G2) (Homo sapiens, UniProt Q13131+Q9UGJ0+Q9Y478); assay: Cell-free AMPK inhibition assay, AMPK (A1/B1/G2) Kinase Enzyme system; assay type: biochemical; details: recombinant full-length human AMPK
T2 construct: This system includes a recombinant full-length human AMPK enzyme; purchased Promega
T2 sequence (Q13131 whole entry): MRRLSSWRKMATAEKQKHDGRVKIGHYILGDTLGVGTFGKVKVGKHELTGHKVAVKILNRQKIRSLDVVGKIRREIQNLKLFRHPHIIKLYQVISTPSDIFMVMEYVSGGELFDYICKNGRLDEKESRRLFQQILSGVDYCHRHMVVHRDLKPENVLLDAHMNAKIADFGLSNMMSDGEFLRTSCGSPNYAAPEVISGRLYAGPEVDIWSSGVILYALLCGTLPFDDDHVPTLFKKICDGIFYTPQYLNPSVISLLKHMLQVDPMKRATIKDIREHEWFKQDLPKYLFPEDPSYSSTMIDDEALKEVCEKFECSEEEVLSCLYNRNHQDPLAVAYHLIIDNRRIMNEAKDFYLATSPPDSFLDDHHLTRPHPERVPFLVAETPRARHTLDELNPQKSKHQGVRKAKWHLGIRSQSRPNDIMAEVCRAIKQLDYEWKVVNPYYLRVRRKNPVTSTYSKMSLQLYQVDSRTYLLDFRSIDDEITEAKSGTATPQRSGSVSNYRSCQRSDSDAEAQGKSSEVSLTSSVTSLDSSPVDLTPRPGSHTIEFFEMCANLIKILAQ
T2 sequence (Q9Y478 whole entry partner): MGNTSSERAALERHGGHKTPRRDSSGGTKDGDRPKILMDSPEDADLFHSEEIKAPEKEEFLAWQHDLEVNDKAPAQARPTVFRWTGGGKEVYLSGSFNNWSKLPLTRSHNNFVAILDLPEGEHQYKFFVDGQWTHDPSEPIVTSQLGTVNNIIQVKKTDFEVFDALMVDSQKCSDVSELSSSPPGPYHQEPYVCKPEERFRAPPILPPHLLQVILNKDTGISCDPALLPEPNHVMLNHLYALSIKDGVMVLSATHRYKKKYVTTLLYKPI
T2 sequence (Q9UGJ0 whole entry partner): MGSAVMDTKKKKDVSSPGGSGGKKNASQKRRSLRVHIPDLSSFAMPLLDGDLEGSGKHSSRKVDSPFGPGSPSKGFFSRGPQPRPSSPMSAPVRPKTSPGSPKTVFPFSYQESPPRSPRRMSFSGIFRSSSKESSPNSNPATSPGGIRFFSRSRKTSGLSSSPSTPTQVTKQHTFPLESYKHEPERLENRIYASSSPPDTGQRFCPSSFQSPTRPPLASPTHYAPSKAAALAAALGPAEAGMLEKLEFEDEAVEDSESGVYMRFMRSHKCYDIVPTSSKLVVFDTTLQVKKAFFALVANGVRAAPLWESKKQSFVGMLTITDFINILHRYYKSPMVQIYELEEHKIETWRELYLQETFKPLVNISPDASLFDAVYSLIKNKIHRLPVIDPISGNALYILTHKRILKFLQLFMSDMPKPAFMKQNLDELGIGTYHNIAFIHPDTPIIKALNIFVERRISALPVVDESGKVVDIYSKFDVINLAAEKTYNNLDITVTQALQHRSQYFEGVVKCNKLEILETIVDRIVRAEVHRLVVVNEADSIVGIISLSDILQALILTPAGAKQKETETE
Experimental: The inhibitory effect of serial concentrations of MAK compounds on AMPK Kinase activity was investigated using the highly sensitive AMPK (A1/B1/G2) Kinase Enzyme assay system (Promega, Madison Wis. USA). This system includes a recombinant full-length human AMPK enzyme and a substrate for the enzyme. The experiment was conducted according to the manufacturer's instructions in the provided protocol. Mean values of replicates were calculated in comparison to the control group.

[3] = system: T47D spheroids; assay: Live and dead assay of tumor spheroids, T47D; assay type: cell-based, human; details: 48 h post treatment, control 2.60±0.31%
Experimental: The Live/Dead assay contains a mixture of two staining fluorescent dyes that label live and dead cells to enable differentiation between them. The cell viability of the cells in response to the treatment with MAK compounds was examined. The cells were grown for 48 hours and treated with MAK compound for additional 48 hours, then Cytox RED solution reagent was added. After incubation at 37° C. under 5% CO2 for 1 hour, the samples were immediately analyzed by flow cytometry. Mean values and standard deviation of replicates were calculated in comparison to the control group.

[4] = system: MCF7 spheroids; assay: Mitochondrial membrane potential assay (JC-1), MCF7 spheroids; assay type: cell-based, human; details: 48 h post treatment at IC50, control 18.01±0.58%
Experimental: The mitochondrial membrane potential was investigated in response to the treatment with MAK compounds. This assay depends on the measurement of the aggregate fluorescence for Tetraethylbenzimidazolylcarbocyanine iodide (JC-1). This cationic dye accumulates in the energized mitochondria, and the increase in aggregate fluorescence indicates mitochondrial […] while the reduction indicates the depolarization state.
After growing the cells and treating them with MAK compound for 48 hours, 2 μM of JC-1 final concentration was added and the mixture was incubated for 1 hour at 37° C. in presence of 5% CO2. Then, the samples were analyzed using flow cytometry. Mean values and standard deviation of replicates were calculated in comparison to the control group.

[5] = system: AMPK (phospho-protein); assay: Phosphoproteome array test, phospho-AMPK signal in lysates of treated HL-60 cells; assay type: cell-based, human
Experimental: The phosphorylation profile of AMPK kinase (among other 37 kinases) was performed using the Proteome Profiler Human Phospho-Kinase Antibody Array Kit by R&D Systems (Minneapolis, Minn., USA) according to the protocol. Briefly, the total cellular protein was extracted using the Lysis buffer and was quantified using Bio-Rad DC Protein Assay kit (Hercules, Calif., USA). Nitrocellulose membrane set (A&B), pre-spotted with kinase-specific capture antibodies, were first blocked with Array Buffer-1 at RT for 30 min on a rocking platform shaker. Approximately 600 μg of protein concentrate was diluted in the buffer provided and was added onto the membrane set, and the membranes were incubated overnight at 4° C. in an 8-well plate. Subsequently, membranes were washed with Wash Buffer and incubated with appropriate Detection Antibody cocktails for 2 h at RT. Streptavadin-HRP (1:2000) was added onto membranes and incubated for 30 min at RT. Membranes were washed, and Chemiluminescent Detection Reagents 1&2 were applied in equal volumes for detection. The signals were detected on C-DiGit® Blot Scanner (LI-COR, Odyssey Imaging Systems, Lincoln, Nebr., USA) using Image Studio 5.0 software.

[6] = system: human skin fibroblasts (HSF); assay: Cytotoxicity on human skin fibroblasts (SRB method); assay type: cell-based
Experimental: In addition to have a good physicochemical profile, it is important for a studied lead to differentiate between cancer cells and highly proliferating non-cancerous cells. Therefore, we assessed compounds MAK-1 and MAK-6 for both the in silico and in vitro physicochemical characteristics as well as for cytotoxic effect on human skin fibroblasts (SKF) cell lines. Cytotoxicity was determined using Sulforhodamine B (SRB) method. Exponentially growing human skin fibroblast cells (Nawah Scientific, Cairo, Egypt) were collected using 0.25% Trypsin-EDTA and were then seeded in 96-well plates at a density of 1000-2000 cells/well in 10% FBS and penicillin/streptomycin supplemented RPMI-1640 medium. After 24 h, cells were treated with different concentrations of test compounds and incubated for 72 h at 37° C. in a humidified atmosphere containing 5% CO2. Next, the cells were fixed by adding trichloroacetic acid (TCA, 10% final conc. in wells) directly to the wells and incubated for 1 h at 4° C., then cells were washed with distilled water 5 times to remove excess TCA, media, serum proteins, and metabolites, followed by air drying. After that, the fixed cells were stained with 0.4% SRB dissolved in 1% acetic acid for 10 min at room temperature, and excess stain was removed by quickly rinsing with 1% acetic acid. The residual acetic acid was removed completely by air drying the plates for 24 h, and the dye was solubilized with Tris buffer (pH=7.4, 10 mM) for 5 min on a shaker at 1600 rpm. The optical density (OD) of each well was measured spectrophotometrically at 564 nm with an ELISA microplate reader (ChroMate-4300, FL, USA). The IC50 values were calculated according to the equation for Boltzman sigmoidal concentration—response curve using the nonlinear regression fitting models (Graph Pad, Prism Version 5).

T1 sequence (P10635 whole entry): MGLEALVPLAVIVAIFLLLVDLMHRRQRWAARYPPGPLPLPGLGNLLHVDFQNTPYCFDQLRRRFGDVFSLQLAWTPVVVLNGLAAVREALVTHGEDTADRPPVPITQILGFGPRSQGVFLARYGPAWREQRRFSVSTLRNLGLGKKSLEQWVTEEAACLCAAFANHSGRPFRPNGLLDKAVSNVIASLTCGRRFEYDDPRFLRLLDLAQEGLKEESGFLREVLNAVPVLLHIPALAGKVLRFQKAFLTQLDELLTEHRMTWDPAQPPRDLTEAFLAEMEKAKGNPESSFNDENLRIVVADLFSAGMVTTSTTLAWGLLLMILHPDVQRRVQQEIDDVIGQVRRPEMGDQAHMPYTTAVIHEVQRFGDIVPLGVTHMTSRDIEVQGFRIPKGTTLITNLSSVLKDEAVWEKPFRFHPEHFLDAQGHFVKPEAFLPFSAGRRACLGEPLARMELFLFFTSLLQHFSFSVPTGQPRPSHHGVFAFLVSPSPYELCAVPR

SMILES | inhibition of CYP2D6 ([1]; concentration not given) | IC50 [2] | dead rate (dead cells), mean±SEM [3] | depolarized cells (mitochondrial membrane), mean±SEM [4] | decrease of phospho-protein AMPK existence ([5]; compound at 8 μM) | safety to normal cells (human skin fibroblasts) ([6]; HSF, SRB, 72 h) | inhibition of CYP2D6 ([1]; concentrations up to 10 μM) | decrease of phospho-protein AMPK existence ([5]; compound at 6 μM) | normal cells inhibited at x-fold higher concentrations than MCF7 breast cancer cells ([6]; HSF vs MCF7)
O=C(Cc1ccc(NC(=O)c2cccc(Cl)c2)cn1)NCc1ccccc1 [MAK-6, N-(6-(2-(benzylamino)-2-oxoethyl)pyridin-3-yl)-3-chlorobenzamide] | did not display any inhibitory activity | 5.6 nM | 37.97±0.27% | 28.73±0.82% | 92.1% | highly safe | – | – | –
COc1cccc(C(=O)Nc2ccc(CC(=O)NCc3ccccc3)cc2)c1 [MAK-1, N-(4-(2-(benzylamino)-2-oxoethyl)phenyl)-3-methoxybenzamide] | – | 4.8 nM | 42.43±0.49% | 24.77±0.65% | – | – | no inhibition | 61.8% | 7 fold
